We go through 2 compounds from US10865211B2 (ENANTA PHARMACEUTICALS, INC, priority 2018, dated 2020).

pEC50: −log10 of the molar value. Bounds are passed on as bounds.

One data set relates to 2.2.15 cells. Put plainly: Antiviral activity in 2.2.15 cells: reduction of viral product accumulation (qPCR, HBsAg/HBeAg ELISA). The format is cell-based, HBV. As to conditions: Hepatitis B virus, 120 h, day 5 post treatment, concentration reducing viral product accumulation in cell lysates or supernatants by 50% relative to no drug controls. Summed up: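 HBV-producing 2.2.15 cells, 35,000/well, treated with 5-fold serial compound dilutions at 0.5% final DMSO for 5 days. Lysate HBV DNA by qPCR or supernatant HBsAg/HBeAg by ELISA; EC50 is 50% reduction versus no-drug control, binned A<0.1 μM, B 0.1-1 μM, C>1 μM.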

The nature of data set [1]: Compound induced cellular toxicity in HepG2 cells (ATPlite). The format is cell-based. As to conditions: human, three days, ATPlite 1 Step, concentration reducing total ATP levels by 50% relative to no drug controls. As to the method: At day 3, post seeding cells are treated with ATPlite 1 Step according to the manufacturer's instructions.
(Cellular ATP, detected with luciferase, serves as a proxy for viable cell number.)

With `CC(C)[C@@H]1Cc2c(oc3c(C4CC4)cccc23)-c2cc(=O)c(C(=O)O)cn21` [Example 83, (S)-11-cyclopropyl-6-isopropyl-2-oxo-6,7-dihydro-2H-benzofuro[2,3-a]quinolizine-3-carboxylic acid], the negative-log EC50 (pEC50) (as a rule, the EC50 on a negative log10 scale, so that one unit is a factor of ten) in the data set on 2.2.15 cells is above 7.00. The half-maximal cytotoxic concentration (CC50) (commonly the concentration at which the toxic effect on the cells reaches its halfway point) at 3 days in data set [1] was below 10 µM.

As for `CC(C)[C@@H]1Cc2c(oc3c(-c4cnco4)cccc23)-c2cc(=O)c(C(=O)O)cn21` [Example 84, (S)-6-isopropyl-11-(oxazol-5-yl)-2-oxo-6,7-dihydro-2H-benzofuro[2,3-a]quinolizine-3-carboxylic acid], the pEC50 in the data set with 2.2.15 cells is above 7.00. In data set [1], this compound gave a CC50 at 3 days above 25 µM.
